For one cell line, relative viability results are on record in the supplement of paper PMC10307832.

Holding throughout (experiment): relative viability (nuclei count vs DMSO), 5 days (fraction); higher = more cells survive
Compound in the test “Carfilzomib + Lapatinib”: CC(C)C[C@H](NC(=O)[C@H](CCc1ccccc1)NC(=O)CN1CCOCC1)C(=O)N[C@@H](Cc1ccccc1)C(=O)N[C@@H](CC(C)C)C(=O)[C@@]1(C)CO1 [Carfilzomib] + CS(=O)(=O)CCNCc1ccc(-c2ccc3ncnc(Nc4ccc(OCc5cccc(F)c5)c(Cl)c4)c3c2)o1 [Lapatinib] (partner 2 µM)
In a few lines:
(§1)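 One day after seeding in 1536-well plates, lung cancer cell lines were dosed by pin tool. Dosing was either single-drug or a fixed anchor-drug dose plus five library-drug doses (not always all listed) in √10 steps. After 5 days, nuclei were stained in one fix-and-stain step and counted on 4× images, and relative viability is the nuclei count of treated wells over that of vehicle wells, given as the median of duplicate plates.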

Compound in the test “Crizotinib + Navitoclax”: C[C@@H](Oc1cc(-c2cnn(C3CCNCC3)c2)cnc1N)c1c(Cl)ccc(F)c1Cl [Crizotinib] + CC1(C)CCC(c2ccc(Cl)cc2)=C(CN2CCN(c3ccc(C(=O)NS(=O)(=O)c4ccc(N[C@H](CCN5CCOCC5)CSc5ccccc5)c(S(=O)(=O)C(F)(F)F)c4)cc3)CC2)C1 [Navitoclax] (partner 0.5 µM)
Summed up: as §1

Compound in the test “Olaparib + Lapatinib”: O=C(c1cc(Cc2n[nH]c(=O)c3ccccc23)ccc1F)N1CCN(C(=O)C2CC2)CC1 [Olaparib] + CS(=O)(=O)CCNCc1ccc(-c2ccc3ncnc(Nc4ccc(OCc5cccc(F)c5)c(Cl)c4)c3c2)o1 [Lapatinib] (partner 2 µM)
In a few lines:
as §1

Compound in the test “Carfilzomib + OSI-027”: CC(C)C[C@H](NC(=O)[C@H](CCc1ccccc1)NC(=O)CN1CCOCC1)C(=O)N[C@@H](Cc1ccccc1)C(=O)N[C@@H](CC(C)C)C(=O)[C@@]1(C)CO1 [Carfilzomib] + COc1cccc2cc(-c3nc([C@H]4CC[C@H](C(=O)O)CC4)n4ncnc(N)c34)[nH]c12 [OSI-027] (partner 0.5 µM)
In a few lines:
as §1

Compound in the test “Crizotinib + Dasatinib”: C[C@@H](Oc1cc(-c2cnn(C3CCNCC3)c2)cnc1N)c1c(Cl)ccc(F)c1Cl [Crizotinib] + Cc1nc(Nc2ncc(C(=O)Nc3c(C)cccc3Cl)s2)cc(N2CCN(CCO)CC2)n1 [Dasatinib] (partner 0.075 µM)
In a few lines: as §1

In the case of NCI-H1793, the relative viability with Carfilzomib + Lapatinib (first compound 0.003162 µM) was determined as 0.772; with Carfilzomib + Lapatinib (first compound 0.01 µM), 0.476; in the test with Carfilzomib + Lapatinib (first compound 0.03162 µM), 0.424; with Carfilzomib + Lapatinib (first compound 0.1 µM), 0.114; in the test with Crizotinib + Navitoclax (first compound 0.01 µM) it was 0.362; in the test with Crizotinib + Navitoclax (first compound 0.03162 µM) it was 0.486. For the same cell line, the relative viability with Crizotinib + Navitoclax (first compound 0.1 µM) was 0.384; with Crizotinib + Navitoclax (first compound 1 µM), 0.529; with Olaparib + Lapatinib (first compound 0.08 µM) it was 0.641; with Olaparib + Lapatinib (first compound 0.253 µM), 0.5; in the test with Olaparib + Lapatinib (first compound 2.53 µM), 0.578; with Olaparib + Lapatinib (first compound 8 µM) it was 0.649. Besides, the relative viability amounted to 0.323 with Carfilzomib + OSI-027 (first compound 0.003162 µM); 0.369 with Carfilzomib + OSI-027 (first compound 0.01 µM); 0.269 with Carfilzomib + OSI-027 (first compound 0.03162 µM); 0.133 with Carfilzomib + OSI-027 (first compound 0.1 µM); 0.401 with Crizotinib + Dasatinib (first compound 0.03162 µM); 0.382 with Crizotinib + Dasatinib (first compound 0.1 µM). Besides, the relative viability with Crizotinib + Dasatinib (first compound 1 µM) came out at 0.369.
